The values that follow come from paper PMC10886690, “Synthesis, Characterization, Antioxidant, and Anticancer Activity against Colon Cancer Cells of Some Cinnamaldehyde-Based Chalcone Derivatives” (Biomolecules, 2024).

SMILES strings stand for the structures. Entries after “also recorded” stand apart in the source; their conditions may differ. Where two headings read alike, the source gives them in different places.

In series [1] the test system is Caco-2 cells. Description: MTT cytotoxicity against Caco-2 cells. Type of series: cell-based, human. The following applies: 24 h incubation, mean ± SD of three analyses, read-out: IC50 Conc. against Caco-2 cells. The method, then:
(§1) The American Type Culture Collection (ATCC) provided WI-38 (ATCC CCL-75), a cell line from the healthy human embryonic lung, and Caco-2 (ATCC HTB-37), a cell line from colon cancer. These cells were developed in DMEM medium that was supplemented with antibiotics and fetal bovine serum in a 5% CO2 humidified incubator at 37 °C.
The toxicity of the tested compounds (3a–3k) toward Caco-2 cancer cells was examined and compared to 5-Fluorouracil (5-FU, the standard reference drug) utilizing MTT assay, as previously explained. In brief, 1 × 10^5 Caco-2 cells/mL were distributed into each well of a 96-well plate and kept overnight at 37 °C in their growth mixture. The cells were then subjected to the various doses of the studied compounds (50–1000 µM). Following that, the cells were exposed to MTT solution, which induced formazan formation from the MTT, a byproduct of the metabolism of MTT that is proportionate to the quantity of intact cells. To further dissolve the formazan crystal, dimethyl sulfoxide was applied to the cells. Caco-2 survival was obtained through measuring the value of the optical density at 570 nm implementing a microplate reader (Bio-Rad, Hercules, CA, USA), and the effect of the substances on cell proliferation was expressed using the aforementioned formula (2):Cell viability % = (Abs. of tested sample − Abs. of blank)/(Abs. of control − Abs. of blank) × 100(2)
The half-suppression (IC50) dose of the test drugs over a 24 h incubation period was identified through examination of the concentration–response curve. Each value was evaluated three times, and the average of the three ratings was employed to obtain the results.

Another series deals with wi38 cells. Description: MTT test on healthy WI38 cells. As to conditions: 50 to 1000 µM, 24 h. Type of series: cell-based, human. The method, then:
as §1
The effects of the investigated compounds on the survival of healthy cells, WI38, have been evaluated and compared to 5-Fluorouracil (5-FU, the standard reference drug) utilizing the MTT test at concentrations ranging from 50 to 1000 µM to further determine whether the substances were secure for usage on living tissues. Three distinct evaluations of each value were carried out to calculate the final findings.
Background: Tetrazolium assays rely on reduction of a dye to a coloured formazan, in cell work by metabolically active cells.

The test system of another series is BAX. Put plainly: qRT-PCR of BAX mRNA in Caco-2 cells. Type of series: cell-based, human. The following applies: Caco-2, IC50 concentration. From the text:
The relative amounts of messenger RNA (mRNA) for apoptosis-related genes (BCL-2, Caspase-3, and BAX) have been monitored in order to look into potential processes relating to the effect of the tested 3e compound on apoptosis inside the treated Caco-2 cancer cells. In a nutshell, Thermo Fisher Scientific’s RNA purification kit (Waltham, MA, USA) (catalog #K0731) was used to isolate total RNA from both control- and Caco-2-treated cells, as per the manufacturer’s instructions. The ratio of A260/A280 was then quantified using a spectrophotometer to figure out the amounts of extracted RNA in each sample. Then, following the manufacturer’s instructions, first-strand cDNA was produced from the collected RNA samples using a kit made by Thermo Fisher Scientific called RevertAid (catalog #K1621). Real-time PCR amplification was performed on an Applied Biosystems StepOnePlusTM instrument using the Thermo Fisher Scientific Maxima SYBR Green qPCR kit (catalog #K0221) and gene-specific primers (Invitrogen, Waltham, MA, USA), as detailed in Table 3. Then, the relative quantification (RQ) of the utilized genes was calculated using a comparative threshold cycle approach, compared against their varied expression in the untreated samples, and normalized to B-actin as a housekeeping gene. […]

Series [2] has as its system Caco-2 cells. Put plainly: Annexin V/PI flow cytometry apoptosis assay. The following applies: Caco-2, IC50 dose, 24 h. It counts as cell-based, human. The method, then: The annexin V/PI assay focuses on the translocation of phosphatidylserine (PS) from the inner plasma membrane toward the cell surface within apoptotic cells. Accordingly, the Annexin V-FITC detection kit I (BD Biosciences) was implemented to figure out the numbers of apoptotic and necrotic cells in both the compound 3e-treated and untreated Caco-2 cells for 24 h.. In brief, Caco-2 cells were collected, expanded in 6-well culture dishes with 1 × 10^6 cells per well, and then allowed to incubate for an overnight period to promote cell adhesion and proliferation. After only 24 h in the presence of the 3e compound, the cells were trypsinized, centrifuged, rinsed with PBS, and then mixed with a solution containing Annexin V binding buffer (1×) before being exposed to the Annexin V-FITC and propidium iodide stains. At last, a flow cytometer (BD FACSCalibur™, Biosciences, San Jose, CA, USA) was implemented to find the amount of early as well as late apoptotic cells, and the outcomes were presented graphically.
For orientation: A flow cytometer gives signals particle by particle.

Another series concerns BCL-2. Description: ELISA of BCL-2 protein in Caco-2 cells. Type of series: cell-based, human. As to conditions: Caco-2, IC50 dose. The method, then: Protein expression levels of the under investigation genes were evaluated in Caco-2 cells treated with compound 3e using an ELISA assay. Three different ELISA kits were used: one for BAX (ab199080), one for cleaved Caspase-3 (ab220655), and one for BCL-2 (ab272102), which were supplied via Abcam (Cambridge, UK). All of these kits are based on a single, highly sensitive sandwich enzyme assay that lasts 90 min and uses a precoated ELISA plate and an anti-tag antibody to capture antibodies that have been labeled with an affinity tag. The tested compound 3e-treated cultured Caco-2 cells were centrifuged, the resulting pellets were discarded, and the residual supernatant was mixed with an antibody cocktail solution in a 96-well ELISA plate. The plate was then incubated for 1 h at room temperature. After thoroughly rinsing the plate in wash buffer (1×), in each well, a ten min incubation period of tetramethylbenzidine substrate solution was conducted. Following that, the plate was stored in a dim area. The intensity at 450 nm was then measured with a microplate reader immediately after a stop solution was added.

As usually defined, the melting point is the temperature of the solid-liquid transition. For orientation: IC50 means the concentration that inhibits the measured activity by half. In turn, `O=C(/C=C/C=C/c1ccccc1)c1ccc[nH]1` [3e, (2E,4E)-5-phenyl-1-(1H-pyrrol-2-yl)penta-2,4-dien-1-one] had a melting point of 170 °C. For the same compound, the IC50 with Caco-2 cells [1] was found to be 32.2 ± 3.92 µM. The half-maximal inhibitory concentration (IC50) in the series with Caco-2 cells [1] (Homo sapiens, Caco-2, 24 h) turned out to be 32.1 ± 3.92 µM. For the same compound, in the series on wi38 cells, the “effect on wi38 normal cell viability” value is “higher % of wi38 cell viability; also recorded: no detrimental effects”. The “BAX mRNA expression level versus untreated cells” value with BAX is on record as “increased considerably”. Further, the “percentage of apoptotic cells (early and late) versus untreated” value in the series with Caco-2 cells [2] was “much greater percentage of apoptotic cells”. Moreover, the “BCL-2 protein level versus untreated cells” value in the series on BCL-2 is recorded as “decreased”.
